{"source": "patent US20260285850A1", "about": "“SUBSTITUTED OXAZOLIDINONES AND IMIDAZOLINONES AS HERBICIDES” (FMC CORPORATION, priority 2023, published 2026)", "assay_type_in_all_cases": "in vivo", "key": {"[1]": {"test_system": "sedge, umbrella (small-flower umbrella sedge, Cyperus difformis)", "test": "Test B flooded paddy test, visual plant response rating 0-100", "details": "250 g ai/ha, Flood, applied to paddy water, evaluated after 13 days", "procedure,_shortened": "(§1)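 2-leaf plants; flood 3 cm over soil; compound dosed into paddy water; depth kept constant; greenhouse 13 d; visual scoring vs controls. Dash = no result.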"}, "[2]": {"test_system": "barnyardgrass (Echinochloa crusgalli)", "test": "Test B flooded paddy test, visual plant response rating 0-100", "details": "250 g ai/ha, Flood, applied to paddy water, evaluated after 13 days", "procedure,_shortened": "as §1"}, "[3]": {"test_system": "rice (Oryza sativa)", "test": "Test B flooded paddy test, visual plant response rating 0-100", "details": "250 g ai/ha, Flood, applied to paddy water, evaluated after 13 days", "procedure,_shortened": "as §1"}, "[4]": {"test_system": "ducksalad (Heteranthera limosa)", "test": "Test B flooded paddy test, visual plant response rating 0-100", "details": "250 g ai/ha, Flood, applied to paddy water, evaluated after 13 days", "procedure,_shortened": "as §1"}, "[5]": {"test_system": "ryegrass, Italian (italian ryegrass, Lolium multiflorum)", "test": "Test A postemergence application, visual injury rating 0-100", "procedure,_shortened": "(§2)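 Greenhouse test: loam/sand pots received a surfactant-containing formulation, as a preemergence directed soil spray or a postemergence spray on young plants. Injury was judged visually at day 10 relative to untreated controls.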"}, "[6]": {"test_system": "oat, wild (wild oat, Avena fatua)", "test": "Test A postemergence application, visual injury rating 0-100", "procedure,_shortened": "as §2"}, "[7]": {"test_system": "kochia (Bassia scoparia)", "test": "Test A postemergence application, visual injury rating 0-100", "procedure,_shortened": "as §2"}, "[8]": {"test_system": "blackgrass (Alopecurus myosuroides)", "test": "Test A postemergence application, visual injury rating 0-100", "procedure,_shortened": "as §2"}, "[9]": {"test_system": "green foxtail (Setaria viridis)", "test": "Test A postemergence application, visual injury rating 0-100", "procedure,_shortened": "as §2"}, "[10]": {"test_system": "corn (Zea mays)", "test": "Test A postemergence application, visual injury rating 0-100", "procedure,_shortened": "as §2"}, "[11]": {"test_system": "soybean (Glycine max)", "test": "Test A postemergence application, visual injury rating 0-100", "procedure,_shortened": "as §2"}, "[12]": {"test_system": "palmer (palmer amaranth, palmer pigweed, Amaranthus palmeri)", "test": "Test A postemergence application, visual injury rating 0-100", "procedure,_shortened": "as §2"}, "[13]": {"test_system": "horseweed (Erigeron canadensis)", "test": "Test A postemergence application, visual injury rating 0-100", "procedure,_shortened": "as §2"}, "[14]": {"test_system": "galium (catchweed bedstraw, Galium aparine)", "test": "Test A postemergence application, visual injury rating 0-100", "procedure,_shortened": "as §2"}, "[15]": {"test_system": "barnyardgrass (Echinochloa crus-galli)", "test": "Test A postemergence application, visual injury rating 0-100", "procedure,_shortened": "as §2"}, "[16]": {"test_system": "wheat (Triticum aestivum)", "test": "Test A postemergence application, visual injury rating 0-100", "procedure,_shortened": "as §2"}, "[17]": {"test_system": "ragweed (common ragweed, Ambrosia artemisiifolia)", "test": "Test A postemergence application, visual injury rating 0-100", "procedure,_shortened": "as §2"}, "[18]": {"test_system": "ryegrass, Italian (italian ryegrass, Lolium multiflorum)", "test": "Test A preemergence soil spray, visual injury rating 0-100", "details": "10 days", "procedure,_shortened": "as §2"}, "[19]": {"test_system": "oat, wild (wild oat, Avena fatua)", "test": "Test A preemergence soil spray, visual injury rating 0-100", "details": "10 days", "procedure,_shortened": "as §2"}, "[20]": {"test_system": "kochia (Bassia scoparia)", "test": "Test A preemergence soil spray, visual injury rating 0-100", "details": "10 days", "procedure,_shortened": "as §2"}, "[21]": {"test_system": "blackgrass (Alopecurus myosuroides)", "test": "Test A preemergence soil spray, visual injury rating 0-100", "details": "10 days", "procedure,_shortened": "as §2"}, "[22]": {"test_system": "green foxtail (Setaria viridis)", "test": "Test A preemergence soil spray, visual injury rating 0-100", "details": "10 days", "procedure,_shortened": "as §2"}, "[23]": {"test_system": "corn (Zea mays)", "test": "Test A preemergence soil spray, visual injury rating 0-100", "details": "10 days", "procedure,_shortened": "as §2"}, "[24]": {"test_system": "soybean (Glycine max)", "test": "Test A preemergence soil spray, visual injury rating 0-100", "details": "10 days", "procedure,_shortened": "as §2"}, "[25]": {"test_system": "palmer (palmer amaranth, palmer pigweed, Amaranthus palmeri)", "test": "Test A preemergence soil spray, visual injury rating 0-100", "details": "10 days", "procedure,_shortened": "as §2"}, "[26]": {"test_system": "barnyardgrass (Echinochloa crus-galli)", "test": "Test A preemergence soil spray, visual injury rating 0-100", "details": "10 days", "procedure,_shortened": "as §2"}, "[27]": {"test_system": "wheat (Triticum aestivum)", "test": "Test A preemergence soil spray, visual injury rating 0-100", "details": "10 days", "procedure,_shortened": "as §2"}, "[28]": {"test_system": "ragweed (common ragweed, Ambrosia artemisiifolia)", "test": "Test A preemergence soil spray, visual injury rating 0-100", "details": "10 days", "procedure,_shortened": "as §2"}, "[29]": {"details": "62 g ai/ha, postemergence, 10 days, 0 = no effect, 100 = complete control"}, "[30]": {"details": "Postemergence, 16 g ai/ha, greenhouse 10 days, 0 no effect, 100 complete control"}, "[31]": {"details": "62 g ai/ha, 0 = no effect, 100 = complete control"}}}
{"smiles": "C=CC1(C(=O)NC2C=CC(C(=O)OC)C2)CN(c2cc(F)cc(F)c2)C(=O)O1", "note": "(single isomer, unassigned) [Compound 168]", "values": [{"measurement": "Plant response rating, Sedge, Umbrella (0 to 100 scale, 0 is no effect and 100 is complete control)", "setting": "[1]", "value": 0}, {"measurement": "Plant response rating, Barnyardgrass (0 to 100 scale, 0 is no effect and 100 is complete control)", "setting": "[2]", "value": 0}, {"measurement": "Plant response rating, Rice (0 to 100 scale, 0 is no effect and 100 is complete control)", "setting": "[3]", "value": 0}, {"measurement": "Plant response rating, Ducksalad (0 to 100 scale, 0 is no effect and 100 is complete control)", "setting": "[4]", "value": 0}, {"measurement": "Ryegrass, Italian plant response rating (0-100)", "setting": "[5]; [29]", "value": 0}, {"measurement": "Ryegrass, Italian plant response rating (0 to 100 scale)", "setting": "[5]; [30]", "value": 0}, {"measurement": "Oat, Wild plant response rating (0-100)", "setting": "[6]; [29]", "value": 0}, {"measurement": "Oat, Wild plant response rating (0 to 100 scale)", "setting": "[6]; [30]", "value": 0}, {"measurement": "Kochia plant response rating (0-100)", "setting": "[7]; [29]", "value": 0}, {"measurement": "Kochia plant response rating (0 to 100 scale)", "setting": "[7]; [30]", "value": 0}, {"measurement": "Blackgrass plant response rating (0-100)", "setting": "[8]; [29]", "value": 0}, {"measurement": "Blackgrass plant response rating (0 to 100 scale)", "setting": "[8]; [30]", "value": 0}, {"measurement": "Foxtail, Green plant response rating (0-100)", "setting": "[9]; [29]", "value": 0}, {"measurement": "Foxtail, Green plant response rating (0 to 100 scale)", "setting": "[9]; [30]", "value": 0}, {"measurement": "Corn plant response rating (0-100)", "setting": "[10]; [29]", "value": 10}, {"measurement": "Corn plant response rating (0 to 100 scale)", "setting": "[10]; [30]", "value": 0}, {"measurement": "Soybean plant response rating (0-100)", "setting": "[11]; [29]", "value": 0}, {"measurement": "Soybean plant response rating (0 to 100 scale)", "setting": "[11]; [30]", "value": 0}, {"measurement": "Pigweed, Palmer plant response rating (0-100)", "setting": "[12]; [29]", "value": 0}, {"measurement": "Pigweed, Palmer plant response rating (0 to 100 scale)", "setting": "[12]; [30]", "value": 0}, {"measurement": "Horseweed plant response rating (0-100)", "setting": "[13]; [29]", "value": 0}, {"measurement": "Horseweed plant response rating (0 to 100 scale)", "setting": "[13]; [30]", "value": 0}, {"measurement": "Galium plant response rating (0-100)", "setting": "[14]; [29]", "value": 0}, {"measurement": "Galium plant response rating (0 to 100 scale)", "setting": "[14]; [30]", "value": 0}, {"measurement": "Barnyardgrass plant response rating (0-100)", "setting": "[15]; [29]", "value": 20}, {"measurement": "Barnyardgrass plant response rating (0 to 100 scale)", "setting": "[15]; [30]", "value": 10}, {"measurement": "Wheat plant response rating (0-100)", "setting": "[16]; [29]", "value": 0}, {"measurement": "Wheat plant response rating (0 to 100 scale)", "setting": "[16]; [30]", "value": 0}, {"measurement": "Ragweed plant response rating (0-100)", "setting": "[17]; [29]", "value": 0}, {"measurement": "Ragweed plant response rating (0 to 100 scale)", "setting": "[17]; [30]", "value": 0}, {"measurement": "Ryegrass, Italian plant response rating", "setting": "[18]; 16 g ai/ha, 0 to 100 scale", "value": 0}, {"measurement": "Ryegrass, Italian plant response rating (0-100)", "setting": "[18]; [31]", "value": 0}, {"measurement": "Oat, Wild plant response rating", "setting": "[19]; 16 g ai/ha, 0 to 100 scale", "value": 0}, {"measurement": "Oat, Wild plant response rating (0-100)", "setting": "[19]; [31]", "value": 0}, {"measurement": "Kochia plant response rating", "setting": "[20]; 16 g ai/ha, 0 to 100 scale", "value": 0}, {"measurement": "Kochia plant response rating (0-100)", "setting": "[20]; [31]", "value": 0}, {"measurement": "Blackgrass plant response rating", "setting": "[21]; 16 g ai/ha, 0 to 100 scale", "value": 0}, {"measurement": "Blackgrass plant response rating (0-100)", "setting": "[21]; [31]", "value": 0}, {"measurement": "Foxtail, Green plant response rating", "setting": "[22]; 16 g ai/ha, 0 to 100 scale", "value": 0}, {"measurement": "Foxtail, Green plant response rating (0-100)", "setting": "[22]; [31]", "value": 0}, {"measurement": "Corn plant response rating", "setting": "[23]; 16 g ai/ha, 0 to 100 scale", "value": 0}, {"measurement": "Corn plant response rating (0-100)", "setting": "[23]; [31]", "value": 0}, {"measurement": "Soybean plant response rating", "setting": "[24]; 16 g ai/ha, 0 to 100 scale", "value": 0}, {"measurement": "Soybean plant response rating (0-100)", "setting": "[24]; [31]", "value": 0}, {"measurement": "Pigweed, Palmer plant response rating", "setting": "[25]; 16 g ai/ha, 0 to 100 scale", "value": 0}, {"measurement": "Pigweed, Palmer plant response rating (0-100)", "setting": "[25]; [31]", "value": 0}, {"measurement": "Barnyardgrass plant response rating", "setting": "[26]; 16 g ai/ha, 0 to 100 scale", "value": 0}, {"measurement": "Barnyardgrass plant response rating (0-100)", "setting": "[26]; [31]", "value": 0}, {"measurement": "Wheat plant response rating", "setting": "[27]; 16 g ai/ha, 0 to 100 scale", "value": 0}, {"measurement": "Wheat plant response rating (0-100)", "setting": "[27]; [31]", "value": 0}, {"measurement": "Ragweed plant response rating", "setting": "[28]; 16 g ai/ha, 0 to 100 scale", "value": 0}, {"measurement": "Ragweed plant response rating (0-100)", "setting": "[28]; [31]", "value": 0}]}
